Source: patent publication US20250135026A1, “Antibody Drug Conjugates” (BeiGene Switzerland GmbH, priority 2021, published 2025)
Like-named read-outs stand apart in the source and are kept apart here.

Legend:
A375 = assay: Compounds cellular killing (Cell Titer-Glo, 6 days, 2D); type: cell-based, human; settings: for cell-killing activity compared with Dxd: A375; for EC50 / Emax: Homo sapiens; for Emax: read-out: Emax
Protocol: (§1) The cell line was grown in a humidified 5% CO2 atmosphere at 37° C., and was regularly tested for the presence of mycoplasma with MycoAlert™ PLUS Mycoplasma Detection Kit (Lonza, LT07-710).
(§2) Incubation at 37° C., 5% CO2, overnight.
(§3) Adding the fresh growth-medium containing the varying concentrations of compounds, 50 ul/well.
(§4) Incubation at 37° C., 5% CO2, 6 days.
(§5) The cell viability detected by Cell Titer-Glo (Promega, G7573). Add 70 µL/well of CellTiter-Glo® Reagent in each well.
(§6) Allow the plates to incubate at room temperature for 10 minutes to stabilize luminescent signal.
(§7) Analyze with Microplate Reader.

in vitro = settings: PAMPA
Calu-6 = assay: Compounds cellular killing (Cell Titer-Glo, 6 days, 2D); type: cell-based; settings: for EC50 / Emax: Homo sapiens; for Emax: read-out: Emax
Protocol: as §1, §2, §3, §4, §5, §6, §7

PAMPA = settings: free payload
HCC1569 = assay: Payload cellular killing, 2D; type: cell-based; settings: Homo sapiens, HCC1569, 2D (HER3 +++); for Emax: read-out: Emax
MDA-MB-453 = assay: Payload cellular killing, 2D; type: cell-based, human; settings: Homo sapiens, MDA-MB-453, 2D (HER3 +++); for Emax: read-out: Emax
Protocol: as §1

cathepsin B = cathepsin B (Homo sapiens, UniProt P07858); assay: Cathepsin B mediated rhodamine release; type: biochemical; settings: 150 nM, 0.3 unit activated cathepsin B, pH 5.5, 37° C., FIG. 21
Protocol: CTSB was activated by incubation at ambient temperature for 15 min with 30 mM dithiothreitol and 15 mM EDTA at PH5.5.
Reaction buffer preparation: 25 mM sodium acetate & 1 mM EDTA, PH5.5.
Adding 150 nM NAcCys-13 & NAcCys-14 & NAcCys-15 & NAcCys-16 & NAcCys-17 and 0.3 unit activated cathepsin B mixture according to the experiment template.
The reaction mixtures were incubated at 37° C. immediately in the reader, then start reading using the kinetic set-up described. (TECAN SPARK: excitation/emission: 485/520 nm) (120 cycles, every one min) Gain Manual: 77%
Data analysis by GraphPad Prism 9 is illustrated in FIG. 21.

[1] = A-375, Table 27, free payload, A375, 2D (Her3 ++)
[2] = A-375, […], Table 29, payload, A375, 6d, 2D (Her3++)
[3] = A-375, Table 29, payload, A375, 6d, 2D (Her3++)
[4] = Calu-6, Table 27, free payload, Calu-6, 2D (HER3 neg.)
[5] = Calu-6, […], Table 29, payload, Clau6, 6d, 2D (Her3 neg)
[6] = Calu-6, Table 29, payload, Clau6, 6d, 2D (Her3 neg)
[7] = A-375, Table 28, payload, A375, 2D (Her3 ++)
[8] = Calu-6, Table 28, payload, Calu-6, 2D (HER3 neg.)

CC[C@@]1(O)C(=O)OCc2c1cc1n(c2=O)Cc2c-1nc1cc(F)c(C)c3c1c2[C@@H](NC(=O)CCO)CC3 [Compound 72]
cell-killing activity compared with Dxd (A375): less potent than Dxd | EC50 (A375; [1]): 4.4 nM | EC50 (A375; [2]): 4.4 nM | EC50 (A375; A-375, Table 21, A375): 4.4 nM | Emax (A375; A-375, Table 21, A375): 99.9% | Emax (A375; [3]): 99.9% | recovery (in vitro): 48.1% | PAMPA -Log Pe: 6.02 | cell-killing activity compared with Dxd (Calu-6; Calu-6): less potent than Dxd | EC50 (Calu-6; Calu-6, Table 21, Calu-6): 2 nM | EC50 (Calu-6; [4]): 2 nM | EC50 (Calu-6; [5]): 2 nM | Emax (Calu-6; [6]): 98.3% | Emax (Calu-6; Table 21, Calu-6): 98.3%

CC[C@@]1(O)C(=O)OCc2c1cc1n(c2=O)Cc2c-1nc1cc(F)c(C)c3c1c2[C@@H](NC(=O)C(C)(C)CO)CC3 [Compound 66, N-((1S,9S)-9-ethyl-5-fluoro-9-hydroxy-4-methyl-10,13-dioxo-2,3,9,10,13,15-hexahydro-1H,12H-benzo[de]pyrano[3′,4′:6,7]indolizino[1,2-b]quinolin-1-yl)-3-hydroxy-2,2-dimethylpropanamide]
cell-killing activity compared with Dxd (A375): stronger cell-killing activity than Dxd | EC50 (A375; [1]): 1.1 nM | EC50 (A375; [2]): 1.1 nM | EC50 (A375; A-375, Table 21, A375): 1.1 nM | Emax (A375; A-375, Table 21, A375): 99.9% | Emax (A375; [3]): 99.9% | recovery (in vitro): 79.7% | PAMPA -Log Pe: 5.89 | cell-killing activity compared with Dxd (Calu-6; Calu-6): stronger cell-killing activity than Dxd | EC50 (Calu-6; Calu-6, Table 21, Calu-6): 0.3 nM | EC50 (Calu-6; [4]): 0.3 nM | EC50 (Calu-6; [5]): 0.3 nM | Emax (Calu-6; [6]): 97.3% | Emax (Calu-6; Table 21, Calu-6): 97.3%

CC[C@@]1(O)C(=O)OCc2c1cc1n(c2=O)Cc2c-1nc1cc(F)c(C)c3c1c2[C@@H](NC(=O)CO)CC3 [DXd, reference compound]
EC50 (A375; [1]): 2.8 nM | EC50 (A375; [7]): 3.2 nM | EC50 (A375; [2]): 2.7 nM | EC50 (A375; A-375, Table 21, A375): 2.8 nM | Emax (A375; A-375, Table 21, A375): 100% | Emax (A375; [3]): 100% | recovery (in vitro): 95.2% | PAMPA -Log Pe (PAMPA): 5.89 | EC50 (HCC1569; HCC1569, Table 28, payload): 2.9 nM | Emax (HCC1569; HCC1569, Table 28, payload): 93.4% | Emax (Calu-6; Calu-6, Table 21, Calu-6): 98% | Emax (Calu-6; [4]): 98% | EC50 (Calu-6; [8]): 1.2 nM | Emax (Calu-6; [8]): 98.6% | Emax (Calu-6; [5]): 98.8% | EC50 (MDA-MB-453; MDA-MB-453, Table 28, payload): 1.9 nM | Emax (MDA-MB-453; MDA-MB-453, Table 28, payload): 98.7%

CCOC(=O)Nc1ccc2c(c1)Oc1cc(NC(=O)OCc3ccc(NC(=O)[C@H](CCCNC(N)=O)NC(=O)[C@@H](NC(=O)[C@H](CP(=O)(O)O)NC(=O)CCOCCOCCOCCN4C(=O)CC(SC[C@H](NC(C)=O)C(=O)O)C4=O)C(C)C)cc3)ccc1C21OC(=O)c2ccccc21 (some centres unmarked) [NAcCys-17]
cathepsin B mediated rhodamine release rate, rank (cathepsin B): NAcCys-15˜NAcCys-13 (benchmark)>NAcCys-14>NAcCys-17

CC[C@@]1(O)C(=O)OCc2c1cc1n(c2=O)Cc2c-1nc1cc(F)c(C)c3c1c2[C@@H](N)CC3 [Exatecan, reference compound]
EC50 (A375; [1]): 0.7 nM | Emax (A375; [1]): 99.9% | EC50 (A375; [7]): 0.9 nM | recovery (in vitro): 56% | PAMPA -Log Pe (PAMPA): 5.75 | Emax (HCC1569; HCC1569, Table 28, payload): 94.5% | EC50 (HCC1569; Table 28, payload): 0.5 nM | EC50 (Calu-6; [4]): 0.3 nM | Emax (Calu-6; [4]): 96.2% | EC50 (Calu-6; [8]): 0.2 nM | Emax (Calu-6; [8]): 96.4% | Emax (MDA-MB-453; MDA-MB-453, Table 28, payload): 99.4% | EC50 (MDA-MB-453; Table 28, payload): 0.5 nM
